Laboratory results: PubChem BioAssay AID1918946 (Molecular Pharmacology Branch, DTP, NCI, 2023)
Values joined by “and” are separate entries in the source; they are usually repeats but may differ in a detail not shown here. Identical values can stand only once. Active and inactive are the calls of the source. Rule for the calls: active = viability on the fitted dose curve at most 10% of control; inactive = the rest.

System: 885512-296-R-J2-PDC complex spheroid viability
Experiment: Anticancer human tumor 885512-296-R-J2-PDC patient-derived breast carcinoma cell line growth inhibition
Settings: for viability, T/C: stronger effect = lower value
Outline: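 Multicellular complex spheroids of tumor cells with human endothelial cells (HUVEC) and mesenchymal stem cells; the LSD1 inhibitor iadademstat was combined with standard-of-care or investigational agents. Top concentration at or near clinical Cmax, half-log dilutions; final DMSO ≤0.25%.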

[1] = curve of first compound, second compound 0.1 µM
[2] = curve of first compound, second compound 0.316 µM
[3] = curve of first compound, second compound 1 µM
[4] = curve of first compound, second compound 3.16 µM
[5] = curve of first compound, second compound 10 µM
[6] = second compound 0.1 µM, first compound 0.000316 µM
[7] = second compound 0.1 µM, first compound 0.001 µM
[8] = second compound 0.1 µM, first compound 0.00316 µM
[9] = second compound 0.1 µM, first compound 0.01 µM
[10] = second compound 0.1 µM, first compound 0.0316 µM
[11] = second compound 0.1 µM, first compound 0.1 µM
[12] = second compound 0.316 µM, first compound 0.000316 µM
[13] = second compound 0.316 µM, first compound 0.001 µM
[14] = second compound 0.316 µM, first compound 0.00316 µM
[15] = second compound 0.316 µM, first compound 0.01 µM
[16] = second compound 0.316 µM, first compound 0.0316 µM
[17] = second compound 0.316 µM, first compound 0.1 µM
[18] = second compound 1 µM, first compound 0.000316 µM
[19] = second compound 1 µM, first compound 0.001 µM
[20] = second compound 1 µM, first compound 0.00316 µM
[21] = second compound 1 µM, first compound 0.01 µM
[22] = second compound 1 µM, first compound 0.0316 µM
[23] = second compound 1 µM, first compound 0.1 µM
[24] = second compound 3.16 µM, first compound 0.000316 µM
[25] = second compound 3.16 µM, first compound 0.001 µM
[26] = second compound 3.16 µM, first compound 0.00316 µM
[27] = second compound 3.16 µM, first compound 0.01 µM
[28] = second compound 3.16 µM, first compound 0.0316 µM
[29] = second compound 3.16 µM, first compound 0.1 µM
[30] = second compound 10 µM, first compound 0.000316 µM
[31] = second compound 10 µM, first compound 0.001 µM
[32] = second compound 10 µM, first compound 0.00316 µM
[33] = second compound 10 µM, first compound 0.01 µM
[34] = second compound 10 µM, first compound 0.0316 µM
[35] = second compound 10 µM, first compound 0.1 µM
[36] = second compound 0.1 µM, first compound 0.00949 µM
[37] = second compound 0.1 µM, first compound 0.03 µM
[38] = second compound 0.1 µM, first compound 0.0949 µM
[39] = second compound 0.1 µM, first compound 0.3 µM
[40] = second compound 0.316 µM, first compound 0.00949 µM
[41] = second compound 0.316 µM, first compound 0.03 µM
[42] = second compound 0.316 µM, first compound 0.0949 µM
[43] = second compound 0.316 µM, first compound 0.3 µM
[44] = second compound 1 µM, first compound 0.00949 µM
[45] = second compound 1 µM, first compound 0.03 µM
[46] = second compound 1 µM, first compound 0.0949 µM
[47] = second compound 1 µM, first compound 0.3 µM
[48] = second compound 3.16 µM, first compound 0.00949 µM
[49] = second compound 3.16 µM, first compound 0.03 µM
[50] = second compound 3.16 µM, first compound 0.0949 µM
[51] = second compound 3.16 µM, first compound 0.3 µM
[52] = second compound 10 µM, first compound 0.00949 µM
[53] = second compound 10 µM, first compound 0.03 µM
[54] = second compound 10 µM, first compound 0.0949 µM
[55] = second compound 10 µM, first compound 0.3 µM
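Throughout, for IC50: spheroids exposed to agents for 7 days before viability read.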
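Throughout, for viability, T/C: spheroids exposed to agents for 7 days before viability read.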

Work on `Cn1ncnc1C1c2n[nH]c(=O)c3cc(F)cc(c23)NC1c1ccc(F)cc1` (configuration not stated) + NC1CC1c1ccc(-c2cccc(O)c2)cc1 yielded an IC50 [1] of 55.1 nM, an IC50 [2] of 51 nM and an IC50 [3] of 41 nM. The IC50 [4] was 28.1 nM, the IC50 [5] was 15.5 nM and the viability, T/C [6] was 138%. For the same compound, the viability, T/C [7] was 114%, the viability, T/C [8] was 98.7% and the viability, T/C [9] was 86.2%. The viability, T/C [10] was 63.6%, the viability, T/C [11] was 35.8% and the viability, T/C [12] was 112%. For the same compound, the viability, T/C [13] was 121%, the viability, T/C [14] was 97% and the viability, T/C [15] was 89.2%. For the same compound, the viability, T/C [16] was 64.3%, the viability, T/C [17] was 30.3% and the viability, T/C [18] was 118%. The viability, T/C [19] was 114%, the viability, T/C [20] was 101% and the viability, T/C [21] was 86.3%. It also gave a viability, T/C [22] of 53.7%, a viability, T/C [23] of 32.3% and a viability, T/C [24] of 105%. For the same compound, the viability, T/C [25] was 110%, the viability, T/C [26] was 94.2% and the viability, T/C [27] was 77.4%. The viability, T/C [28] was 46.7%, the viability, T/C [29] was 27.2% and the viability, T/C [30] was 72.4%. The viability, T/C [31] was 80.2%, the viability, T/C [32] was 70.5% and the viability, T/C [33] was 55.5%. It also gave a viability, T/C [34] of 39.1% and a viability, T/C [35] of 20.5%.

In the case of `COc1cc(Nc2ncc3c(n2)-c2ccc(Cl)cc2C(c2c(F)cccc2OC)=NC3)ccc1C(=O)O`, the viability, T/C (compound 0.00316 µM) is reported as 63.8% and 24.6%, the viability, T/C (compound 0.01 µM) is reported as 32.3% and 28.3% and the viability, T/C (compound 0.0316 µM) is reported as 23% and 22.3%. For the same compound, the viability, T/C (compound 0.1 µM) was 31.3% and 21%, the viability, T/C (compound 0.316 µM) was 14.5% and 18.3% and the viability, T/C (compound 1 µM) was 12% and 14.3%. The IC50 (curve of compound) was 5.39 nM and < 3.16 nM.

With `Nc1ccn(C2OC(CO)C(O)C2(F)F)c(=O)n1` (configuration not stated) + NC1CCC(NC2CC2c2ccccc2)CC1 the IC50 [1] was < 0.949 nM, the IC50 [2] was < 0.949 nM and the IC50 [3] was < 0.949 nM. For the same compound, the IC50 [4] was < 0.949 nM, the IC50 [5] was < 0.949 nM and the viability, T/C (second compound 0.1 µM, first compound 0.000949 µM) was 2.54%. The viability, T/C (second compound 0.1 µM, first compound 0.003 µM) was 9.95%, the viability, T/C [36] was 3.52% and the viability, T/C [37] was 9.59%. The viability, T/C [38] was 5.54%, the viability, T/C [39] was 10.4% and the viability, T/C (second compound 0.316 µM, first compound 0.000949 µM) was 2.51%. It also gave a viability, T/C (second compound 0.316 µM, first compound 0.003 µM) of 5.66%, a viability, T/C [40] of 5.62% and a viability, T/C [41] of 2.98%. It also gave a viability, T/C [42] of 10%, a viability, T/C [43] of 7.9% and a viability, T/C (second compound 1 µM, first compound 0.000949 µM) of 10.2%. For the same compound, the viability, T/C (second compound 1 µM, first compound 0.003 µM) was 2.49%, the viability, T/C [44] was 2.65% and the viability, T/C [45] was 2.66%. The viability, T/C [46] was 5.52%, the viability, T/C [47] was 10.6% and the viability, T/C (second compound 3.16 µM, first compound 0.000949 µM) was 2.36%. For the same compound, the viability, T/C (second compound 3.16 µM, first compound 0.003 µM) was 6.19%, the viability, T/C [48] was 2.7% and the viability, T/C [49] was 3.2%. The viability, T/C [50] was 2.6%, the viability, T/C [51] was 5.18% and the viability, T/C (second compound 10 µM, first compound 0.000949 µM) was 4.44%. It also gave a viability, T/C (second compound 10 µM, first compound 0.003 µM) of 4.02%, a viability, T/C [52] of 3.03% and a viability, T/C [53] of 2.62%. The viability, T/C [54] was 4.97% and the viability, T/C [55] was 2.63%.

For `Nc1ccccc1NC(=O)c1ccc(CNC(=O)OCc2cccnc2)cc1` + NC1CC1c1ccc(-c2cccc(O)c2)cc1, the IC50 [1] was 48.2 nM, the IC50 [2] was 50.4 nM and the IC50 [3] was 41.9 nM. The IC50 [4] was 43.1 nM, the IC50 [5] was 23.9 nM and the viability, T/C [36] was 99.3%. The viability, T/C [37] was 63.1%, the viability, T/C [38] was 30.5% and the viability, T/C [39] was 17.5%. The viability, T/C (second compound 0.1 µM, first compound 0.949 µM) was 6.69%, the viability, T/C (second compound 0.1 µM, first compound 3 µM) was 0.26% and the viability, T/C [40] was 104%. The viability, T/C [41] was 61.7%, the viability, T/C [42] was 37.2% and the viability, T/C [43] was 12.3%. For the same compound, the viability, T/C (second compound 0.316 µM, first compound 0.949 µM) was 5.8%, the viability, T/C (second compound 0.316 µM, first compound 3 µM) was 0.31% and the viability, T/C [44] was 102%. The viability, T/C [45] was 53.8%, the viability, T/C [46] was 35.2% and the viability, T/C [47] was 15%. It also gave a viability, T/C (second compound 1 µM, first compound 0.949 µM) of 5.26%, a viability, T/C (second compound 1 µM, first compound 3 µM) of 0.29% and a viability, T/C [48] of 94.2%. It also gave a viability, T/C [49] of 57.9%, a viability, T/C [50] of 32.8% and a viability, T/C [51] of 12.7%. The viability, T/C (second compound 3.16 µM, first compound 0.949 µM) was 5.2%, the viability, T/C (second compound 3.16 µM, first compound 3 µM) was 0.22% and the viability, T/C [52] was 65.8%. For the same compound, the viability, T/C [53] was 45.7%, the viability, T/C [54] was 27.9% and the viability, T/C [55] was 12.9%. The viability, T/C (second compound 10 µM, first compound 0.949 µM) was 4.05% and the viability, T/C (second compound 10 µM, first compound 3 µM) was 0.22%.

With `CCN(c1cc(-c2ccc(CN3CCOCC3)cc2)cc(C(=O)NCc2c(C)cc(C)[nH]c2=O)c1C)C1CCOCC1` the viability, T/C (compound 0.00949 µM) was 92.3% and 81.8%, the viability, T/C (compound 0.03 µM) was 80.2% and 89.8% and the viability, T/C (compound 0.0949 µM) was 74.8% and 68%. For the same compound, the viability, T/C (compound 0.3 µM) was 60.2% and 35.7%, the viability, T/C (compound 0.949 µM) was 76.2% and 18.2% and the viability, T/C (compound 3 µM) was 25.1% and 7.11%. For the same compound, the IC50 (curve of compound) was 1700 nM and 188 nM.

`CC[C@@]1(O)C(=O)OCc2c1cc1n(c2=O)Cc2cc3c(CN(C)C)c(O)ccc3nc2-1` + NC1CCC(NC2CC2c2ccccc2)CC1 gave an IC50 [1] of 0.517 nM, an IC50 [2] of 0.571 nM and an IC50 [3] of 0.48 nM. For the same compound, the IC50 [4] was 0.497 nM, the IC50 [5] was 0.398 nM and the viability, T/C [6] was 74%. The viability, T/C [7] was 17.8%, the viability, T/C [8] was 9.2% and the viability, T/C [9] was 3.46%. It also gave a viability, T/C [10] of 7.41%, a viability, T/C [11] of 12.3% and a viability, T/C [12] of 81.8%. For the same compound, the viability, T/C [13] was 19.7%, the viability, T/C [14] was 7.03% and the viability, T/C [15] was 3.42%. It also gave a viability, T/C [16] of 5.16%, a viability, T/C [17] of 7.04% and a viability, T/C [18] of 66.9%. For the same compound, the viability, T/C [19] was 20.4%, the viability, T/C [20] was 6.72% and the viability, T/C [21] was 5.59%. It also gave a viability, T/C [22] of 3.12%, a viability, T/C [23] of 4.36% and a viability, T/C [24] of 71.7%. It also gave a viability, T/C [25] of 16.6%, a viability, T/C [26] of 5.15% and a viability, T/C [27] of 6.21%. It also gave a viability, T/C [28] of 2.51%, a viability, T/C [29] of 2.21% and a viability, T/C [30] of 59.4%. It also gave a viability, T/C [31] of 13.6%, a viability, T/C [32] of 5.78% and a viability, T/C [33] of 3.89%. The viability, T/C [34] was 2.72% and the viability, T/C [35] was 1.8%.

In the case of `CC(C)c1c(-c2ccccc2)nc2c(C#N)c[nH]n2c1=O`, the viability, T/C (compound 0.0316 µM) is reported as 90.7% and 86%, the viability, T/C (compound 0.1 µM) is reported as 106% and 89.1% and the viability, T/C (compound 0.316 µM) is reported as 86.7% and 80.9%. For the same compound, the viability, T/C (compound 1 µM) was 99.3% and 81%, the viability, T/C (compound 3.16 µM) was 92.9% and 87.5% and the outcome (compound 10 µM) was “active”. For the same compound, the viability, T/C (compound 10 µM) was 57% and the IC50 (curve of compound) was 4130 nM and > 10000 nM.
